What was measured:
H. pylori = experiment: Survival / MBC of H. pylori in standard incubations (40 min, 37° C., pH 7.4); assay type: cell-based, Helicobacter pylori; conditions: for effect on H. pylori viability of each ingredient by itself at low concentration: 0.3 mM FA C12:0, 0.05% Tween 20, 200 μg/ml lansoprazole, each alone
Procedure: FIG. 1 The survival of H. pylori in the presence of: FA C12:0 only (▴); FA C12:0 plus 100 μg/mL lansoprazole ([…]); FA C12:0 plus 200 μg/mL lansoprazole (▪); FA C12:0 plus 300 μg/mL lansoprazole (▾); FA C12:0 plus 400 μg/mL lansoprazole (♦); FA C12:0 plus 0.05% (w/w) Tween 20 (Δ); FA C12:0 plus 100 μg/mL lansoprazole plus 0.05% (w/w) Tween 20 (◯); FA C12:0 plus 200 μg/mL lansoprazole plus 0.05% (w/w) Tween 20 (□). Cells were incubated at pH 7.4 for 40 min at 37° C.
FIG. 2 The effect of lansoprazole on the survival of H. pylori in the presence of 0.05% Tween 20 (▴), and in its absence (Δ). Cells were incubated at pH 7.4 for 40 min at 37° C.
FIG. 4 The effect of monolaurin (MG C12) on survival of H. pylori in the absence (squares) and presence (diamonds) of Tween 80 (0.4%, w/v), after 40 min exposure at 37° C. and initial pH 7.4.
These can be selected from any one or more of capric acid, lauric acid, myristic acid, myristoleic acid, palmitoleic acid, linolenic acid, monolaurin or monomyristin for example. This list is not intended to be limiting. Reference can also be made to Table 1 of Sun et al FEMS Immun. Med. Microbiol. 36, 9-17, 2003 (the disclosure of which is included herein by way of reference). The MBC is the minimum concentration of agent(s) that result(s) in a 5 log units decrease in viable cell numbers.
The effects of combinations of lansoprazole (0-400 μg/mL), 0.05% Tween 20, and FA C12:0 (0.1-1.0 mM) on the viability of H. pylori were examined in standard incubations. The results are shown in FIG. 1, and the MBCs for FA C12:0, with different combinations of lansoprazole and Tween 20, are summarised in Table 1.
Experiments to Examine Possible Interactions Between Monolaurin (MG C12) and Tween 80. The concentration profile of monolaurin on the survival of H. pylori was tested in the presence and absence of 0.4% (w/v) Tween 80, and the results are shown in FIG. 4. MG C12 on its own, has little effect in the range 0-0.3 mM. However in the range 0.3-0.5 mM MG C12 there is a sharp increase in bactericidal potency, and the killing increased by >5 log units (FIG. 4, squares).

[1] = test system: Helicobacter pylori in mucus; experiment: In vitro mucus/H. pylori test chamber model: survival of H. pylori in pig gastric mucus; assay type: cell-based, Helicobacter pylori (NCTC 11637)
Text: FIG. 3 Diagram of apparatus used to model the mucus layer in digestive tract. This test chamber was designed as an in vitro model to investigate the barrier effect of mucus in protecting H. pylori from agents present in the lumen of the stomach. […] The mucus layer (C2), contains H. pylori, with numbers of colony forming units as specified. It is held as a 1 mm thick disc between the test chamber base (B and C4) and a stainless steel mesh (A and C1). This was then inserted into a Falcon tube containing broth (D). • A. Screw top lid with a recessed top containing a stainless steel grid. • B. Base with recessed well 1 mm deep×10 mm diameter that contains mucus (shaded area—see C2) • C. Cross sectional view of chamber (A & B). 1—stainless steel mesh, 2=mucus, 3=screw top lid, 4=base • D. Chamber in a Falcon tube covered with Iso-sensitest broth (with or without additives). An H. pylori (NCTC 11637) culture was mixed with pig gastric mucus for 40 min, and then H. pylori colonies were re-isolated by dilution and plating. The re-isolated strain was used in the experiments below. PCR of the 16S rDNA piece and sequencing was used to confirm that the re-isolated bacterial strain was H. pylori. H. pylori was grown by plating on Columbia agar (Oxoid) with 5% horse serum (Fort Richard) at 37° C. for 48 h under microaerophilic conditions (80% nitrogen, 15% carbon dioxide, 5% oxygen). Two loops of 48 h agar plate culture were inoculated into pre-warmed (37° C.) Iso-sensitest broth (Oxoid) containing 5% horse serum and incubated for 24 h under microaerophilic conditions. This 24 h H. pylori broth culture (500 μL) was added to 3.5 g of thawed pre-warmed pig gastric mucus (previously frozen at −20° C.) and mixed. […] Final concentrations of surviving H. pylori colony forming units (cfu) were calculated per gram of mucus. […] Abbreviations used are: FA=0.1 or 0.2 mM lauric acid; TW=0.05% Tween 20; OM=0.58 mM omeprazole; NAC=0.245 M N-acetylcysteine. • (a) Calculated H. pylori cfu's initially added per gram of mucus. […]

SMILES: CCCCCCCCCCCC(=O)O [FA C12:0, lauric acid]
- effect on H. pylori viability of each ingredient by itself at low concentration (H. pylori): no effect
- MBC (H. pylori; Helicobacter pylori, 40 min, MBC of FA C12:0 in medium with the stated additions, 40 min incubation with H. pylori at 37° C. and pH 7.4, MBC = concentration giving 5 log units decrease in viable cells, read-out: MBC (minimal bactericidal concentration of FA C12:0)): 1000 µM
- effect of FA on its own on H. pylori survival in mucus ([1]; 0.1 mM FA experiment): minimal effect
- H. pylori numbers (cfu per g mucus) using 0.1 mM FA ([1]; 0.1 mM lauric acid, TW=0.05% Tween 20, OM=0.58 mM omeprazole, NAC=0.245 M N-acetylcysteine, 40 min, 37° C., pH 7.0, broth-alone control 1.29 × 10^6): 1.85 × 10^5 cfu per g mucus
- H. pylori numbers (cfu per g mucus) using 0.2 mM FA ([1]; 0.2 mM lauric acid, TW=0.05% Tween 20, OM=0.58 mM omeprazole, NAC=0.245 M N-acetylcysteine, 40 min, 37° C., pH 7.0, broth-alone control 2.64 × 10^4): 2.59 × 10^4 cfu per g mucus

SMILES: CCCCCCCCCCCC(=O)OCC(O)CO (centres unmarked) [MG C12, monolaurin]
- killing of H. pylori (H. pylori; 0.5 mM monolaurin in the absence of Tween 80, 40 min, 37° C., initial pH 7.4): > 5 logs
- killing of H. pylori (H. pylori; 0.5 mM monolaurin with 0.4% Tween 80 present, 40 min, 37° C., initial pH 7.4): 3 logs
- effect of MG C12 on its own on survival of H. pylori (H. pylori; range 0-0.3 mM MG C12, no Tween 80, 40 min, 37° C., initial pH 7.4): little effect
- increase in killing of H. pylori (H. pylori; range 0.3-0.5 mM MG C12 on its own, 40 min, 37° C., initial pH 7.4): > 5 log units

SMILES: Cc1c(OCC(F)(F)F)ccnc1C[S+]([O-])c1nc2ccccc2[nH]1 (centres unmarked) [lansoprazole, reference compound]
- effect on H. pylori viability of each ingredient by itself at low concentration (H. pylori): no effect
- effect of lansoprazole by itself on H. pylori in vitro (H. pylori; concentrations below 400 μg/mL, Midolo et al observation, confirmed by FIG. 2 (pH 7.4, 40 min, 37° C.)): little effect
